According to patent US4263323A, “β-Receptor blocking compounds and treatment of cardiovascular disorders therewith” (priority 1979, dated 1981):

How the values were obtained:
[1] = target: T1, cardiac β-receptors (Felis catus, UniProt Q9TST6); experiment: β-blockade of isoprenaline heart rate response, reserpinized anesthetized cat; assay type: in vivo; conditions: iv, 0.012-51.2 μmol/kg, isoproterenol 0.1 μg/kg i.v.
T1 construct: from tissue; host or cells: heart of the living, reserpinized, anesthetized cat (in vivo heart rate)
T1 sequence (Q9TST6 whole entry): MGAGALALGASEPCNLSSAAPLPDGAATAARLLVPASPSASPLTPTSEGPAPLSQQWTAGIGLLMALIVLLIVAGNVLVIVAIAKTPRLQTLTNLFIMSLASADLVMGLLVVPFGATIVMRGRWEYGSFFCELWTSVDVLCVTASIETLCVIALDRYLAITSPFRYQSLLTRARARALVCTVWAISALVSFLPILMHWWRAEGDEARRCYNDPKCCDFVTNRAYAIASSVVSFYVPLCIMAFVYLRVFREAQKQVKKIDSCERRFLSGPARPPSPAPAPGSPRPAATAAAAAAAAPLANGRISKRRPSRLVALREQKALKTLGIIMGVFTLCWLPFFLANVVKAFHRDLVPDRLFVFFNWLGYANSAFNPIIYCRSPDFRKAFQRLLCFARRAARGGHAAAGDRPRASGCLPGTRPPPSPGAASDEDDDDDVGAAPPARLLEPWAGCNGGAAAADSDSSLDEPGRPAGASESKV
Description: The new compounds have valuable pharmacological properties. Thus they block cardiac β-receptors, which is shown at the determination of the antagonism of tachycardia after an intravenous injection of 0.1 ug/kg of 1-isoproterenol sulphate on an anaesthetized cat at an intravenous dose of 0.012-51.2 umol/kg. The compounds are heart selective with regard to their β-blocking activity.
The agents of the present invention were tested as regards their biological properties. All compounds were thereby tested in anesthetized cats (males and females weighing 2.5-3.5 kg) pretreated with reserpine (5 mg/kg bodyweight administered intramuscularly) about 16 hours before the experiments. The animals were pretreated with reserpine in order to eliminate the endogenous sympathetic control of heart rate and vascular smooth muscle tone. The cats were anesthetized with pentobarbital (30 mg/kg bodyweight administered i.p.) and artificially ventilated with room air. A bilateral vagotomy was performed in the neck. […] Vascular resistance in one hind leg was recorded by an autoperfusion technique. […] Blockade of the heart rate and vascular resistance response to isoproterenol was calculated for each dose and expressed as percent decrease of the response obtained when isoproterenol was injected before any dose of the test compound. […]

[2] = target: T2, α-receptors (Rattus norvegicus, UniProt P43140); experiment: α-receptor blocking activity in isolated rat vas deferens (noradrenaline contraction); conditions: read-out: pA2 (α-receptor blocking activity) (converted)
T2 construct: from tissue; host or cells: isolated rat vas deferens
T2 sequence (P43140 1-466): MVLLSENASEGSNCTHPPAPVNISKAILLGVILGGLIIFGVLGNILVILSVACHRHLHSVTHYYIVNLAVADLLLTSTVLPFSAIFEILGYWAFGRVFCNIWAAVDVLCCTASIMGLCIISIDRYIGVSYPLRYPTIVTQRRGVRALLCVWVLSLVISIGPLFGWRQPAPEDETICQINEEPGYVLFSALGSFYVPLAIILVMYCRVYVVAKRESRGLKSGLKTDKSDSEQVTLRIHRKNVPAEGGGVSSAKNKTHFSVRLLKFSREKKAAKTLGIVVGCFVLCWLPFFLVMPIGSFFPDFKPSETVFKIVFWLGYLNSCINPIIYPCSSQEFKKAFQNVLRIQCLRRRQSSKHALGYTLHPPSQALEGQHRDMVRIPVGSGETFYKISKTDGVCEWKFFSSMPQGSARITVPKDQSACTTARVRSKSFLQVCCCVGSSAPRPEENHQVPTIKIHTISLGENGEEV
Description: α-receptor blocking activity was tested in isolated rat vas deferens. Noradrenaline administered to the organ bath induces a contraction in vas deferens by activating α-receptors. The ability of the test compounds to inhibit this noradrenaline response was studied. The α-receptor blocking activity was expressed as pA2 values. pA2 is defined as the negative logarithm of the concentration of an antagonist (in our case the test compounds) which leads to the fact that the dose of the agonist (in our case noradrenaline) has to be doubled in order to obtain the same effect of the agonist as that obtained without the antagonist present. Thus a high pA2 value indicates a high α-receptor blocking activity of a compound.

[3] = target: T3, β-receptors (vascular resistance in one hind leg) (Felis catus, UniProt Q9TST5); experiment: β-blockade of isoprenaline peripheral resistance response (hind leg), reserpinized anesthetized cat; assay type: in vivo; conditions: iv, 0.012-51.2 μmol/kg, isoproterenol 0.1 μg/kg i.v.
T3 construct: from tissue; host or cells: hind-leg vasculature of the living, reserpinized, anesthetized cat (in vivo)
T3 sequence (Q9TST5 whole entry): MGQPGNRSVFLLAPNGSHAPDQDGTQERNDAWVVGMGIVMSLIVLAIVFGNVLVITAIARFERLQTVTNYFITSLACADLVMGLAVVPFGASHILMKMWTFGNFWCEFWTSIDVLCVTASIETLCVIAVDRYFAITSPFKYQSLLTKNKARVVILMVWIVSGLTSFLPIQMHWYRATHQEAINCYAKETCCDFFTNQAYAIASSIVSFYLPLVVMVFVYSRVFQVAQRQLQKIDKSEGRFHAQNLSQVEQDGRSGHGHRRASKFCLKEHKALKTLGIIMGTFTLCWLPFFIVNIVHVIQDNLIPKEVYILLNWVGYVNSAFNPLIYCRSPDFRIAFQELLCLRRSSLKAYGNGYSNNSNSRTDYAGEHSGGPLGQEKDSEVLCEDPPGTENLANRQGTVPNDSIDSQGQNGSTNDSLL
Description: (§1) The agents of the present invention were tested as regards their biological properties. All compounds were thereby tested in anesthetized cats (males and females weighing 2.5-3.5 kg) pretreated with reserpine (5 mg/kg bodyweight administered intramuscularly) about 16 hours before the experiments. The animals were pretreated with reserpine in order to eliminate the endogenous sympathetic control of heart rate and vascular smooth muscle tone. The cats were anesthetized with pentobarbital (30 mg/kg bodyweight administered i.p.) and artificially ventilated with room air. A bilateral vagotomy was performed in the neck. Blood pressure was obtained from a cannulated carotid artery and heart rate was registered from a cardiotachometer, triggered by the electrocardiogram (ECG). Vascular resistance in one hind leg was recorded by an autoperfusion technique. Intrinsic beta mimetic activity on the heart was seen as increased heart rate after drug administration. The test compounds were given intravenously in logarithmically increasing doses. […] Blockade of the heart rate and vascular resistance response to isoproterenol was calculated for each dose and expressed as percent decrease of the response obtained when isoproterenol was injected before any dose of the test compound. […]

[4] = system: heart rate; experiment: Intrinsic beta mimetic activity on the heart, reserpinized cat; assay type: in vivo
Description: as §1

Kb [2]: 3.16 µM | ED50 [3]: 1.8 µmol/kg
SMILES: COCCNC(=O)COc1ccccc1OCC(O)CNCCOc1ccc(O)cc1 (centres unmarked) [3-[2-(4-hydroxyphenoxy)ethylamino]-1-o-methoxyethylaminocarbonylmethoxyphenoxy-propanol-2]
ED50 [1]: 0.05 µmol/kg | Emax ([4]; Felis catus, iv, % of isoprenaline): 0% | Intrinsic activity Δbeats/min. ([4]; i.v.): 0 beats/min
